Blank lines part the entries; values can stand above or below the molecule they belong to.
Key:
Format in all cases: cell-based
TRPA1 [1] = molecular target: T1, TRPA1 (Rattus norvegicus, UniProt Q6RI86); experiment: whole-cell patch clamp in transfected HEK293 cells, […] fatty acid
TRPA1 [2] = molecular target: TRPA1 (Mus musculus, UniProt Q8BLA8); experiment: whole-cell patch clamp of native TRPA1 in STC-1 cells (-60 mV)
Description: whole-cell patch clamp of native TRPA1 in STC-1 cells (-60 mV) on TRPA1 | Concentration-response curve for AITC evoked currents in STC-1 cells

TRPA1 [3] = molecular target: T1, TRPA1; experiment: whole-cell patch clamp in transfected HEK293 cells (-60 mV), with NAC
TRPA1 [4] = molecular target: T1, TRPA1; experiment: patch clamp of native TRPA1 in RIN14B cells, block of DHA current at […]

T1 sequence (Q6RI86 whole entry): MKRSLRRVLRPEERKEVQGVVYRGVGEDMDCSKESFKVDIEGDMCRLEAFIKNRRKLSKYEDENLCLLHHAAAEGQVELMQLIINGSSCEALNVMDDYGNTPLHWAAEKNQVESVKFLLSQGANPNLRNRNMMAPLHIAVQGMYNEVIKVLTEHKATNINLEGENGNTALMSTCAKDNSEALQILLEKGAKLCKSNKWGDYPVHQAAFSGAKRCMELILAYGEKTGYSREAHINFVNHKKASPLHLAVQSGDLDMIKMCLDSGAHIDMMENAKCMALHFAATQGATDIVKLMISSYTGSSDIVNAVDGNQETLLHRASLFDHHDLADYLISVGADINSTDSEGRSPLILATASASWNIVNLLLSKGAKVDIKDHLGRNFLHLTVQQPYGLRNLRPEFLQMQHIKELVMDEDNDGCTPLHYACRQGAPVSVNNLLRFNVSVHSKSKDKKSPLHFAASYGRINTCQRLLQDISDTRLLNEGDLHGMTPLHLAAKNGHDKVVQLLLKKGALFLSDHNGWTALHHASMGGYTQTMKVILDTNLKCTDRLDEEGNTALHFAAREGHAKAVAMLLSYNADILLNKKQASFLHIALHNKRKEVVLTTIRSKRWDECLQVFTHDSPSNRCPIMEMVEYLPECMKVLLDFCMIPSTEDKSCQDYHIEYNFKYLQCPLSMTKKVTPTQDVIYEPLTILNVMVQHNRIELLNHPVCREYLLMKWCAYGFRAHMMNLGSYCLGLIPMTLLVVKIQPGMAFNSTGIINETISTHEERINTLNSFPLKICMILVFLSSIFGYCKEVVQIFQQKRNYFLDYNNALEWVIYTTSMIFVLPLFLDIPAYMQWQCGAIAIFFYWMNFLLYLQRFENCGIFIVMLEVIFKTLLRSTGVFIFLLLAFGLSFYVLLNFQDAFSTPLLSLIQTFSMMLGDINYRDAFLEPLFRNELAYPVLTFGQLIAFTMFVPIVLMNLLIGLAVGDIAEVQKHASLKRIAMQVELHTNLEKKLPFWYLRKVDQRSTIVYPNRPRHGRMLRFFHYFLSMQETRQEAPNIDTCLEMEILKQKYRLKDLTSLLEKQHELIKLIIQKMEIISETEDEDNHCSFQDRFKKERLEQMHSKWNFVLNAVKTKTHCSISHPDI
Sequence of TRPA1 (Mus musculus, UniProt Q8BLA8) (Q8BLA8 whole entry): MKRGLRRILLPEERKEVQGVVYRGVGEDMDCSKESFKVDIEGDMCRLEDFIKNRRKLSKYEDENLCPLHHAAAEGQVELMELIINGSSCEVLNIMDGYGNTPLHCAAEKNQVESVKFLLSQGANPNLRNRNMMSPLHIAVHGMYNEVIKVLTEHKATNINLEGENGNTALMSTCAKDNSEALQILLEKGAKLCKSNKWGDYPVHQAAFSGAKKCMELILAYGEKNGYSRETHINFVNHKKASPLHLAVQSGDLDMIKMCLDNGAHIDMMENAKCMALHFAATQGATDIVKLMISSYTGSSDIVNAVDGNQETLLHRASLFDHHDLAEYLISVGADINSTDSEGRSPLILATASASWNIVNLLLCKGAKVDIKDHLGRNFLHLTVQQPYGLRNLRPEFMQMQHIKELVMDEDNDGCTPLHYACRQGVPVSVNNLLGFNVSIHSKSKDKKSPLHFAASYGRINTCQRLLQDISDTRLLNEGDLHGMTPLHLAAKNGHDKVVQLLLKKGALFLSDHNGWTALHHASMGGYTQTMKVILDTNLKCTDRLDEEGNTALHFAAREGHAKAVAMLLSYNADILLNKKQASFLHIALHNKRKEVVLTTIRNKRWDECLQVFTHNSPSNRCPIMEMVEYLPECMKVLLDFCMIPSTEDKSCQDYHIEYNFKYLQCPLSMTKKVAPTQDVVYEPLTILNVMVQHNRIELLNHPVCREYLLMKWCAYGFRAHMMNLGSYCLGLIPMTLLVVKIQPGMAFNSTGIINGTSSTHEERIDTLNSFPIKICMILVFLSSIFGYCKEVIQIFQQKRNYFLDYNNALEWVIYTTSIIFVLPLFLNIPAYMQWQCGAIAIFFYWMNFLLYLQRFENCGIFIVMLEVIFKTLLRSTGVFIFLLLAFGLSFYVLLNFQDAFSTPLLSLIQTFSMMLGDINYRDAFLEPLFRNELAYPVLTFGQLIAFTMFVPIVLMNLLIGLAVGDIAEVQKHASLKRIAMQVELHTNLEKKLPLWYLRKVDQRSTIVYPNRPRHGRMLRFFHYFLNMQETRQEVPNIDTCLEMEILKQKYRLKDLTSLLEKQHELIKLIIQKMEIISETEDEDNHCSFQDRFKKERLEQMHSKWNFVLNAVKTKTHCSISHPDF

Compound: CCCCC/C=C\C/C=C\C/C=C\C/C=C\CCCC(=O)O [AA, arachidonic acid]
whole-cell patch clamp in transfected HEK293 cells, 100 μM fatty acid (TRPA1 [1]): Thus, AA, EPA and DHA possess approximate equivalent efficacy.

Compound: C=CCN=C=S [AITC, allyl isothiocyanate]
EC50 (TRPA1 [2]): 29 µM

EC50 (TRPA1 [3]): 41 µM
Compound: CC/C=C\C/C=C\C/C=C\C/C=C\C/C=C\C/C=C\CCC(=O)O [DHA, docosahexaenoic acid]

Compound: CC(C)c1ccc(NC(=O)Cn2cnc3c2c(=O)n(C)c(=O)n3C)cc1 [HC030031]
patch clamp of native TRPA1 in RIN14B cells, block of DHA current at 50 μM (TRPA1 [4]): outwardly-rectified conductance in voltage-clamped STC-1 and RIN14B cells, that is inhibited by the TRPA1 antagonist, HC030031

Source: article PMC3378573, “TRPA1 Is a Polyunsaturated Fatty Acid Sensor in Mammals” (PLoS ONE, 2012)
